Assay results as given in ChEMBL document CHEMBL1615345, “Evaluation of a published in silico model and construction of a novel Bayesian model for predicting phospholipidosis inducing potential” (J Chem Inf Model, 2007).

What was measured:
Phospholipidosis [1] = experiment: Phospholipidosis-positive literature compound observed in mouse; format: ADME, organism-based; conditions: in vivo
Phospholipidosis [2] = experiment: Phospholipidosis-positive literature compound observed in rabbit; format: ADME, Oryctolagus cuniculus
Phospholipidosis [3] = conditions: rat
Phospholipidosis [4] = experiment: Phospholipidosis-positive literature compound observed in dog; format: ADME, Canis lupus familiaris
Phospholipidosis [5] = experiment: Phospholipidosis-positive literature compound observed in monkey; format: ADME; conditions: cercopithecidae
Phospholipidosis [6] = experiment: Phospholipidosis-positive literature compound observed in hamster; conditions: cricetinae
Phospholipidosis [7] = experiment: Phospholipidosis-positive literature compound observed in human; format: ADME
Phospholipidosis [8] = experiment: Phospholipidosis-positive literature compound observed in guinea pig; format: ADME, Cavia porcellus
Phospholipidosis [9] = experiment: Phospholipidosis-positive literature compound observed in Rhesus monkey; format: ADME, Macaca mulatta

Measured: Phospholipidosis

CC(C)(N)Cc1ccc(Cl)cc1 [CHLORPHENTERMINE]
Active: Phospholipidosis [1] | Phospholipidosis [2] | Phospholipidosis [3] | Phospholipidosis [4]

CC(C)N(CCC(CCN1CCCCC1)(C(N)=O)c1ccccc1Cl)C(C)C (centres undefined) [DISOBUTAMIDE]
Active: Phospholipidosis [5] | Phospholipidosis [3] | Phospholipidosis [4]

CCN(CC)CCOc1ccc(C(O)(Cc2ccc(Cl)cc2)c2ccc(C)cc2)cc1 (centres undefined) [TRIPARANOL]
Active: Phospholipidosis [1] | Phospholipidosis [6] | Phospholipidosis [3]

CCC(c1ccc(OCCN(CC)CC)cc1)C(CC)c1ccc(OCCN(CC)CC)cc1 (centres undefined) [CORALGIL]
not listed: Phospholipidosis [5] | Phospholipidosis [8] | Phospholipidosis [9]
Active: all other assays above

CCNC(C)Cc1cccc(C(F)(F)F)c1 (centres undefined) [FENFLURAMINE]
Active: Phospholipidosis [8] | Phospholipidosis [3] | Phospholipidosis [4]

CCN(CC)CCCC(C)Nc1ccnc2cc(Cl)ccc12 (centres undefined) [CHLOROQUINE]
Active: Phospholipidosis [1] | Phospholipidosis [9] | Phospholipidosis [7] | Phospholipidosis [3] | Phospholipidosis [4]
